# From ChEMBL document CHEMBL4387785, “Discovery of a C-8 hydroxychromene as a potent degrader of estrogen receptor alpha with improved rat oral exposure over GDC-0927” (Bioorg Med Chem Lett, 2019)
# Legend:
# [1] = in vitro; settings: human, liver microsomes
# [2] = in vitro; settings: rat, liver microsomes
# [3] = in vitro; settings: human, hepatocytes
# [4] = in vitro; settings: rat, hepatocytes
# [5] = Dose normalized AUC in rat at 5 mg/kg, po administered as suspension; assay type: ADME, organism-based; settings: in vivo
# [6] = in vivo; settings: rat, iv, 1 mg/kg
# [7] = in vivo; settings: rat, po, 5 mg/kg
# [8] = in vitro; settings: dog, MDCK
# [9] = Oral bioavailability in rat at 1 mg/kg administered as suspension; assay type: ADME, organism-based; settings: in vivo
# [10] = Dose normalized AUC in rat at 1 mg/kg, po administered as suspension; assay type: ADME, organism-based; settings: in vivo
CLhep predicted [1] [mL/min/kg],CLhep predicted [2] [mL/min/kg],AUC/dose [5] [µM·h],clearance [6] [mL/min/kg],bioavailability [7] [%],Papp A→B [8] [×10⁻⁶ cm/s],bioavailability [9] [%],AUC/dose [10] [µM·h],Compound,CLhep predicted [3] [mL/min/kg],CLhep predicted [4] [mL/min/kg]
10,28,,,,,,,CC1=C(c2ccc(F)cc2)[C@H](c2ccc(OCCN3CC(CF)C3)cc2)Oc2ccc(O)cc21,14,31
12,45 to 46,0.04,100,10,4.6,,,CC1=C(c2cccc(O)c2)[C@H](c2ccc(OCCN3CC(CF)C3)cc2)Oc2ccc(O)cc21,16,45 to 46
9,43,,18,,2.4,30,0.43,CC1=C(c2cccc(O)c2)[C@H](c2ccc(OCCN3CC(CF)C3)cc2)Oc2c(O)cccc21,13,44
9,27,,,,,,,CC1=C(c2ccc(F)cc2)[C@H](c2ccc(OCCN3CC(CF)C3)cc2)Oc2c(O)cccc21,,

Compound,CLhep predicted [1] [mL/min/kg],CLhep predicted [2] [mL/min/kg],AUC/dose [5] [µM·h],clearance [6] [mL/min/kg],bioavailability [7] [%],Papp A→B [8] [×10⁻⁶ cm/s],bioavailability [9] [%],AUC/dose [10] [µM·h],CLhep predicted [3] [mL/min/kg],CLhep predicted [4] [mL/min/kg]
CC1=C(c2ccc(F)cc2)[C@H](c2ccc(OCCN3CC(CF)C3)cc2)Oc2cc(F)c(O)cc21,8,20,,,,,,,15,28
Oc1cccc(C2=Cc3cc(O)ccc3O[C@H]2c2ccc(OCCN3CC(CF)C3)cc2)c1,12,36,,,,,,,17,41
CCC1=C(c2cccc(O)c2)[C@H](c2ccc(OCCN3CC(CF)C3)cc2)Oc2ccc(O)cc21,12,39,,,,,,,15,40
